Source: ChEMBL document CHEMBL4507291 (2021)

Assays:
[1] = target: Leucine-rich repeat serine/threonine-protein kinase 2 (Homo sapiens, UniProt Q5S007); assay: Cellular assay monitoring dephosphorylation of pSer935 LRRK2
[2] = target: Ribosomal protein S6 kinase alpha-2 (Homo sapiens) (UniProt Q15349); assay: RPS6KA2 (RSK3) Kinase screen; settings: Compound concentration 1.0 uM
[3] = target: T1, Tyrosine-protein kinase JAK3 (Homo sapiens) (UniProt P52333); assay: JAK3 Kinase screen; settings: Compound concentration 1.0 uM
T1 sequence (whole entry): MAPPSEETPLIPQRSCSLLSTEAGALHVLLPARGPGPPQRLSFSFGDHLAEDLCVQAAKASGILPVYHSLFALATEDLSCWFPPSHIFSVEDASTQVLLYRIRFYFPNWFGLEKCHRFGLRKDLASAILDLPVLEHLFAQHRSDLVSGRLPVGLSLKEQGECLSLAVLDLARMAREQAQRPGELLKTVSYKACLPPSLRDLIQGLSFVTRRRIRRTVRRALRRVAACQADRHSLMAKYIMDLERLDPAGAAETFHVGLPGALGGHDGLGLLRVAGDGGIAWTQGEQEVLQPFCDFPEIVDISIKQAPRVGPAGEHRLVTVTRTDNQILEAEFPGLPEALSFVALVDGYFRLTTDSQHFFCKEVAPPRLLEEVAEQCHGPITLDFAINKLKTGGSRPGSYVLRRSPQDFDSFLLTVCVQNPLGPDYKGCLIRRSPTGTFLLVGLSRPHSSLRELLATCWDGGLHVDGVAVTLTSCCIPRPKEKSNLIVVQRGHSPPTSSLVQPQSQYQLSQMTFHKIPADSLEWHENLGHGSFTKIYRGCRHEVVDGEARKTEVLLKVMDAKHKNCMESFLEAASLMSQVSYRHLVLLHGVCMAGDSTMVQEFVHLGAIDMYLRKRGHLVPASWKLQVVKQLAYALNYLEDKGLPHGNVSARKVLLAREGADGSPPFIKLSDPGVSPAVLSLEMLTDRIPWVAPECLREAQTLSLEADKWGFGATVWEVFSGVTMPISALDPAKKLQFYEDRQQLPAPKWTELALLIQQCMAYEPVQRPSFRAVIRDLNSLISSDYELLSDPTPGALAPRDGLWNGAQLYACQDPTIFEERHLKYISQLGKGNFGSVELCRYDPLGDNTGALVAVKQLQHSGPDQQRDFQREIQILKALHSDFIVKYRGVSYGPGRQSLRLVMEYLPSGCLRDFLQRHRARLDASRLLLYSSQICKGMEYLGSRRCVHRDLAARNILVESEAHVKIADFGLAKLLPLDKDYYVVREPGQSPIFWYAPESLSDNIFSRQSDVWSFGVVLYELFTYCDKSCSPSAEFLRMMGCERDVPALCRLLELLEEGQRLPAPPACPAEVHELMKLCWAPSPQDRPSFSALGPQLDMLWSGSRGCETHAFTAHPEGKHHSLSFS

[4] = target: T2, Mitogen-activated protein kinase kinase kinase 3 (Homo sapiens) (UniProt Q99759); assay: MAP3K3 (MEKK3) Kinase screen; settings: Compound concentration 1.0 uM
T2 sequence (whole entry): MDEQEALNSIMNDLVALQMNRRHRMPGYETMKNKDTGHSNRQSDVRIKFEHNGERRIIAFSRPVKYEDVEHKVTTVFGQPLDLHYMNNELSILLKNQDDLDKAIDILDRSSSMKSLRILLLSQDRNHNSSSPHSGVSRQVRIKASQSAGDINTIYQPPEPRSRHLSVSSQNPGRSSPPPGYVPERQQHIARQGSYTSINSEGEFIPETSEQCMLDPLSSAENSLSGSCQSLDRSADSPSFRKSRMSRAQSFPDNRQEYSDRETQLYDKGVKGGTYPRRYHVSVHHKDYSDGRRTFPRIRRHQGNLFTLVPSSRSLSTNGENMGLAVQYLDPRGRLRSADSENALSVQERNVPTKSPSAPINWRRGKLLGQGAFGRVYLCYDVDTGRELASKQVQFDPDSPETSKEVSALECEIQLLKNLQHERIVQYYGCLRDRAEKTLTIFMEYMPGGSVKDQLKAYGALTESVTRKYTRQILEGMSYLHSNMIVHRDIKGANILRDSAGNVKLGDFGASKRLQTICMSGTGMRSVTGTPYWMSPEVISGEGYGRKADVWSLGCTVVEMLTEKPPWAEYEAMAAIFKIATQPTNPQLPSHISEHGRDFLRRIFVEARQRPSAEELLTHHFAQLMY

[5] = target: Acetylcholine receptor subunit alpha (Homo sapiens) (UniProt P02708); assay: Inhibition of Nicotinic Acetylcholine D1, Bungarotoxin at 10 µM in the Eurofins-Panlabs radioligand binding assay (Eurofins_assay_258700); settings: Compound concentration 10.0 uM
[6] = target: Maternal embryonic leucine zipper kinase (Homo sapiens) (UniProt Q14680); assay: MELK Kinase screen; settings: Compound concentration 1.0 uM
[7] = target: Substance-K receptor (Homo sapiens) (UniProt P21452); assay: Inhibition of Tachykinin NK2 at 10 µM in the Eurofins-Panlabs radioligand binding assay (Eurofins_assay_255600); set-up: ligand concentration 0.5 nM; settings: Compound concentration 10.0 uM
[8] = target: Tyrosine-protein kinase CSK (Homo sapiens) (UniProt P41240); assay: CSK Kinase screen; settings: Compound concentration 1.0 uM
[9] = target: Platelet-derived growth factor receptor beta (Homo sapiens) (UniProt P09619); assay: PDGFRB (PDGFR beta) Kinase screen; settings: Compound concentration 1.0 uM
[10] = target: T3, Tyrosine-protein kinase Tec (Homo sapiens) (UniProt P42680); assay: TEC Kinase screen; settings: Compound concentration 1.0 uM
T3 sequence (whole entry): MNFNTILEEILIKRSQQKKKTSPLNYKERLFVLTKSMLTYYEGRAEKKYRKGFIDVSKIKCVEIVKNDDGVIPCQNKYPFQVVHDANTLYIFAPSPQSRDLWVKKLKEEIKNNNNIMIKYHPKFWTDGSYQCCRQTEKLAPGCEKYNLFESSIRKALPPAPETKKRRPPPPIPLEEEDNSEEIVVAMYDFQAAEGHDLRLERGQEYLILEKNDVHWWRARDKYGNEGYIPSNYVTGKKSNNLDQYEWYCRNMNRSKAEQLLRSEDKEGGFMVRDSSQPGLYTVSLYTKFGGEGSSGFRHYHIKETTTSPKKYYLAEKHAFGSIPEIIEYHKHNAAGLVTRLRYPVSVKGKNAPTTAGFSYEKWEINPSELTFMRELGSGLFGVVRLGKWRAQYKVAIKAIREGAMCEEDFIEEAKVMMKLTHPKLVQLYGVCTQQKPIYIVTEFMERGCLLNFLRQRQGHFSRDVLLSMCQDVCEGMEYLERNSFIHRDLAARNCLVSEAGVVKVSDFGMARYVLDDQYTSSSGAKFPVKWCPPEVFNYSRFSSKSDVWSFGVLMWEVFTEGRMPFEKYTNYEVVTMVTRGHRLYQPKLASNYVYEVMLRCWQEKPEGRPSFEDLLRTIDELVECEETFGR

[11] = target: Mitogen-activated protein kinase 9 (Homo sapiens) (UniProt P45984); assay: MAPK9 (JNK2) Kinase screen; settings: Compound concentration 1.0 uM
[12] = target: Activated CDC42 kinase 1 (Homo sapiens) (UniProt Q07912); assay: TNK2 (ACK) Kinase screen; settings: Compound concentration 1.0 uM
[13] = target: Dual specificity mitogen-activated protein kinase kinase 1 (Homo sapiens) (UniProt Q02750); assay: MAP2K1 (MEK1) Kinase screen; settings: Compound concentration 1.0 uM
Dual specificity mitogen-activated protein kinase kinase 1 (Homo sapiens), sequence (Q02750 whole entry): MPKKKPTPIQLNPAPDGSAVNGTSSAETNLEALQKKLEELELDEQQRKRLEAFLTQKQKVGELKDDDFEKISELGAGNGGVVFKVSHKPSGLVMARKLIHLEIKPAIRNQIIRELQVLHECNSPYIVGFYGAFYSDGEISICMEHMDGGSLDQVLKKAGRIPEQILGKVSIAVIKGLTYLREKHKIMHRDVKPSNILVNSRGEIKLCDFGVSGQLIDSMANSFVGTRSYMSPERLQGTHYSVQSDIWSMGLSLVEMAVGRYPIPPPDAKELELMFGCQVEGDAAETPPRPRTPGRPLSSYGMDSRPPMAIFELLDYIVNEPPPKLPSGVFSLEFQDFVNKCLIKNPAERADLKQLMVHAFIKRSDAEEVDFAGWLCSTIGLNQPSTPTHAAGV

Platelet-derived growth factor receptor beta (Homo sapiens), sequence (P09619 whole entry): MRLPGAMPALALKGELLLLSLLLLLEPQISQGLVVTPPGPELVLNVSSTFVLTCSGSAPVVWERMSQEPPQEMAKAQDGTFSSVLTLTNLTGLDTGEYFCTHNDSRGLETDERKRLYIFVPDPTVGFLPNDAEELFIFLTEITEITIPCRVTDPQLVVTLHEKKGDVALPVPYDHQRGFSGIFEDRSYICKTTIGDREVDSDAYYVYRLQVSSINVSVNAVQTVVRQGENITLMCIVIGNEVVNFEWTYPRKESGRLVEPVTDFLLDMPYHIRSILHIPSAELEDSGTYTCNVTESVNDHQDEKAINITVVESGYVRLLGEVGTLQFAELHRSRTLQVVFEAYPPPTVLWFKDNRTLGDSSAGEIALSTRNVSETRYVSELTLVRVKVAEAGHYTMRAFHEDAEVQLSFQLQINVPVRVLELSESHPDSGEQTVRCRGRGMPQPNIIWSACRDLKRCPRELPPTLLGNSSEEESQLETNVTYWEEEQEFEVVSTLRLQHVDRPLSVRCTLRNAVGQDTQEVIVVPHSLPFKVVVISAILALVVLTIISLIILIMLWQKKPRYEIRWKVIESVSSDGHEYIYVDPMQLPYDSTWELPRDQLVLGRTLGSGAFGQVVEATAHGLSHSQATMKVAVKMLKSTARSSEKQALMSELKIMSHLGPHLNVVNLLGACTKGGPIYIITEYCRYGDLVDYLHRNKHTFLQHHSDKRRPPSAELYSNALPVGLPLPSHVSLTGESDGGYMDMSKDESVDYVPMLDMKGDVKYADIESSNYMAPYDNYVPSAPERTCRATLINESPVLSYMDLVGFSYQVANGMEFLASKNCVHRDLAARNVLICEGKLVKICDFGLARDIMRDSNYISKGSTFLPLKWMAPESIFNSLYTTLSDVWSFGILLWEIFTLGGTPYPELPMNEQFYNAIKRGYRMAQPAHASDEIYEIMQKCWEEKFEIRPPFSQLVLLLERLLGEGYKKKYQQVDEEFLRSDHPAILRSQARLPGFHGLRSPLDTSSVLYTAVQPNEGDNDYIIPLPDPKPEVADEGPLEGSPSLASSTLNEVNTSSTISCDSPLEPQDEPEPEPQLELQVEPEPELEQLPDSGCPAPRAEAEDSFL
Mitogen-activated protein kinase 9 (Homo sapiens), sequence (P45984 whole entry, looked up): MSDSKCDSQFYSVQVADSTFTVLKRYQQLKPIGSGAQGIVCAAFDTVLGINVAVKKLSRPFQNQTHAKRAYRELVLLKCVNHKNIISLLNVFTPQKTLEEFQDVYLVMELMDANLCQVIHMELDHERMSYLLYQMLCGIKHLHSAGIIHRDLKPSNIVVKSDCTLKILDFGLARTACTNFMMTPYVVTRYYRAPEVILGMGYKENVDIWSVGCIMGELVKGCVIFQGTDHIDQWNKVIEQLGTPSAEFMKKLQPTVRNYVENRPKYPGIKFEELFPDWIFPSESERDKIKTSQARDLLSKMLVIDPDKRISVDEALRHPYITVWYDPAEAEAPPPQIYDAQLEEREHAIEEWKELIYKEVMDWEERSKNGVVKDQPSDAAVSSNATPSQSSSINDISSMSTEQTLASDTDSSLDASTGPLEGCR
Leucine-rich repeat serine/threonine-protein kinase 2, sequence (Q5S007 whole entry): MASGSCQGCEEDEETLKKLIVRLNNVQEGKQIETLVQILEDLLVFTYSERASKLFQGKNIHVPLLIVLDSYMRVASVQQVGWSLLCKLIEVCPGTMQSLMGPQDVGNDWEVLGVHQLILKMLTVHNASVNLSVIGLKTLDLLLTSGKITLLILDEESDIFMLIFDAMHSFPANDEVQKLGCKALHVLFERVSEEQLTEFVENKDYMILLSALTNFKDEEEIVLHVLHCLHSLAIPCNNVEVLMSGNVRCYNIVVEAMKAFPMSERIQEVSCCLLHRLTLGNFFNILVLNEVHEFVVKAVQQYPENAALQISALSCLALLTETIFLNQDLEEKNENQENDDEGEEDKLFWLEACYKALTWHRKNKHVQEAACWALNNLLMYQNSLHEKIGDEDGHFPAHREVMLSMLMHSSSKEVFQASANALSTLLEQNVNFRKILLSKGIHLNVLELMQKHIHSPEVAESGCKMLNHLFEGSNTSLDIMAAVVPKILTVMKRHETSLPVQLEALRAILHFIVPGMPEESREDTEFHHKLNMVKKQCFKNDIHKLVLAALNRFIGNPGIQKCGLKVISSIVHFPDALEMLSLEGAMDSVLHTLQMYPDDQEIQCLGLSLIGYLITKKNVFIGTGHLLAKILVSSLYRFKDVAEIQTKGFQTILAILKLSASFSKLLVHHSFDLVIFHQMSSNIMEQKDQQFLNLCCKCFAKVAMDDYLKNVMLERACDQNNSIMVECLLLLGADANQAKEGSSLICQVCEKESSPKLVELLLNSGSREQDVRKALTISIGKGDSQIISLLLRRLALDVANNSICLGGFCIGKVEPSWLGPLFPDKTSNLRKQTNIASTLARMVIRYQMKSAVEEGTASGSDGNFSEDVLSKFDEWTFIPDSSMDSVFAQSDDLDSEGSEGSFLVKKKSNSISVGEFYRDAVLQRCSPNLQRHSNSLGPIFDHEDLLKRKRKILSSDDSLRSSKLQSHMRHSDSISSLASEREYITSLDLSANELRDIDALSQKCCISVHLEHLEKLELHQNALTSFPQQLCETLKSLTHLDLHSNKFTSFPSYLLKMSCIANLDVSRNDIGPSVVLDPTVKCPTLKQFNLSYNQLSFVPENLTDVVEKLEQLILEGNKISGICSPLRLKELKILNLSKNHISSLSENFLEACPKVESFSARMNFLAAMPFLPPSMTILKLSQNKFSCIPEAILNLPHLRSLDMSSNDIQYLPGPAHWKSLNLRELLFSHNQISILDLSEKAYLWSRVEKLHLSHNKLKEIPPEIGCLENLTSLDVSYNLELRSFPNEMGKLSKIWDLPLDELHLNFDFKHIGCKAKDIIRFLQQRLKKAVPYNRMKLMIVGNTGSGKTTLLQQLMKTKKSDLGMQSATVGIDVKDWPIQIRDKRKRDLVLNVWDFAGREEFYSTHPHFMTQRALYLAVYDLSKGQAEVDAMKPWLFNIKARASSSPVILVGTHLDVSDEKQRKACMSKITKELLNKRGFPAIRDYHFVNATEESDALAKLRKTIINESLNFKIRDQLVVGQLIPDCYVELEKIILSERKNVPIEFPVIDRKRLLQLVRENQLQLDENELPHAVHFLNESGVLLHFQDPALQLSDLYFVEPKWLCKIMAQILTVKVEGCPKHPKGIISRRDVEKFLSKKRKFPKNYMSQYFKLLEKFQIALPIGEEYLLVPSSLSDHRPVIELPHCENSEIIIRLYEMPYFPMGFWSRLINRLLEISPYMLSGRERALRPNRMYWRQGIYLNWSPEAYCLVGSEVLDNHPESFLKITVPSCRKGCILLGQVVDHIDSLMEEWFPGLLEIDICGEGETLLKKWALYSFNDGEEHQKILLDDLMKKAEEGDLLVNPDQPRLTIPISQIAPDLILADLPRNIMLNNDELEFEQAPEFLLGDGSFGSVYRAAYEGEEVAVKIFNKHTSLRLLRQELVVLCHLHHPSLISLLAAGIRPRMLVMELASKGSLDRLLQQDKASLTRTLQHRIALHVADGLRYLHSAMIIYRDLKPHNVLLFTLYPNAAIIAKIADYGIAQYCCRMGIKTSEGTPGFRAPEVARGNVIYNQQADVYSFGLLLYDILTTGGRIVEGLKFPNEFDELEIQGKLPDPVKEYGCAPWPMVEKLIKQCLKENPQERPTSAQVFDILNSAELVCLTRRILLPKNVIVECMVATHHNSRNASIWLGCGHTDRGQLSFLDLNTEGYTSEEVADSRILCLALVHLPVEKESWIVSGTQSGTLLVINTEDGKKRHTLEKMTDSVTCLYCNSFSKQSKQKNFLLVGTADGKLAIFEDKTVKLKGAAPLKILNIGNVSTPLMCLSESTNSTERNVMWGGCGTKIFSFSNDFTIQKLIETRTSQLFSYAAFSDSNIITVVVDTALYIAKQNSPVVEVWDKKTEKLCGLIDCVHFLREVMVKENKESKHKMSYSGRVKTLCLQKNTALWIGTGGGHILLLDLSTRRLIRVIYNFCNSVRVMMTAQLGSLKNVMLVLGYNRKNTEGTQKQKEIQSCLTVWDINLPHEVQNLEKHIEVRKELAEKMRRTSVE
Acetylcholine receptor subunit alpha (Homo sapiens), sequence (P02708 whole entry): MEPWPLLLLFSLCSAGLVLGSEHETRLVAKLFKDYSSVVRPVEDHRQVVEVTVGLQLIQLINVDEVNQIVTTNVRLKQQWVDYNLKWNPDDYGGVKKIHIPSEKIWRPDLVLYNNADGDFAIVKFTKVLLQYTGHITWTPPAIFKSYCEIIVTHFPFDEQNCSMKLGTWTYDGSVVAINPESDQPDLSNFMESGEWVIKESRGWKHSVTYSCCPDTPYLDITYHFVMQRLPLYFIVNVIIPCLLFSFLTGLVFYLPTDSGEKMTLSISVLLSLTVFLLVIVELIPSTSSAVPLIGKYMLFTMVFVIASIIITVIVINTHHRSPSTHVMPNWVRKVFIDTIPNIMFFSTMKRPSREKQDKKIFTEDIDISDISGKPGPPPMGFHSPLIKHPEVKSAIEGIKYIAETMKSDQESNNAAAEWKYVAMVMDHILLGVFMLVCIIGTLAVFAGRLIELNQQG

Structure (SMILES)	IC50 [1]	inhibition [2] [%]	inhibition [3] [%]	inhibition [4] [%]	inhibition [5] [%]	inhibition [6] [%]	inhibition [7] [%]	inhibition [8] [%]	inhibition [9] [%]	inhibition [10] [%]	inhibition [11] [%]	inhibition [12] [%]	inhibition [13] [%]
C[C@@H]1CN(c2cc(-c3nn(C)c4ccc(OC5(C)CC5)cc34)ncn2)C[C@H](C)O1 [MLi-2-NC]	5.44 µM (not active)	–	–	–	–	–	–	–	–	–	–	–	–
C[C@@H]1CN(c2cc(-c3n[nH]c4ccc(OC5(C)CC5)cc34)ncn2)C[C@H](C)O1 [MLi-2]	–	7.53	7.05	-0.743	6	5.44	27	5.55	6.43	-2.1	19.7	22.9	8.27
